Source: the supplement of paper PMC10949913

How the values were obtained:
Details in all cases: 48 h
NCI-H295R [1] = test: AC50 viability; higher = less potent
Summary of the method: (§1)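 In 1,536-well plates, 500–1,000 cells/well of three adrenocortical carcinoma cell lines in 5 µL medium received 23 nL of each library compound across 11 concentrations. At 48 h, CellTiter-Glo was incubated for 15 minutes at room temperature and luminescence measured. Per-plate normalisation used vehicle and empty-well controls, and only inhibitory or non-responding curve classes were kept when fitting concentration-response curves for AC50 and area under the curve.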

CU-ACC1 = test: area under concentration-response curve (viability) (AUC (a.u.)); higher = less active
Summary of the method: as §1

CU-ACC2 = test: as above
Summary of the method: as §1

NCI-H295R [2] = test: as above
Summary of the method: as §1

SMILES	AC50 viability (NCI-H295R [1]) [µM]	area under concentration-response curve (CU-ACC1)	area under concentration-response curve (CU-ACC2)	area under concentration-response curve (NCI-H295R [2])
CCN(CC)CCNC(=O)c1c(C)[nH]c(/C=C2\C(=O)Nc3ccc(F)cc32)c1C	9.34	528	529	456
COc1cc([C@@H]2c3cc4c(cc3[C@@H](O[C@@H]3O[C@@H]5CO[C@@H](c6cccs6)O[C@H]5[C@H](O)[C@H]3O)[C@H]3COC(=O)[C@H]23)OCO4)cc(OC)c1O	11.8	509	608	532
CO[C@H]1C[C@H]2OC[C@@]2(OC(C)=O)[C@H]3[C@H](OC(=O)C4=CC=CC=C4)[C@]5(O)C[C@H](OC(=O)[C@H](O)[C@@H](NC(=O)OC(C)(C)C)C6=CC=CC=C6)/C(=C(/[C@@H](OC)C(=O)[C@]13C)C5(C)C)C	0.934	520	565	382
COc1cc([C@@H]2c3cc4c(cc3[C@H](O)[C@H]3COC(=O)[C@@H]23)OCO4)cc(OC)c1OC	0.934	504	467	453
CC(/C=C/[C@@H]1C[C@]1(C)c1ccc2c(c1)C(C)(C)CCC2(C)C)=C\C(=O)O	18.6	525	650	538
CN1CCN(CC1)C2=CC3=C([NH]C(=N3)C/4=C(\N)C5=C(F)C=CC=C5NC4=O)C=C2	20.9	485	574	479
COc1cc(NCc2ccc3nc(N)nc(N)c3c2C)cc(OC)c1OC	20.9	447	476	446
COc1ccc(/C=C\c2cc(OC)c(OC)c(OC)c2)cc1O	0.00934	505	474	333
NC/1=N/C2=C([NH]C=N2)C(=S)N1	10.5	511	609	533
O=C(Nc1cccc(C(F)(F)F)c1)Nc1cc([S+](=O)([O-])NC2CC2)ccc1-c1ccsc1	23.5	525	568	514
COC1=CC=CC2=C1C(=NC(=N2)C3=CC=CS3)NN4C(=O)\C=C(C)/C4=O	5.9	423	489	438
COc1ccc(-c2ccc3c(N4CCOC[C@@H]4C)nc(N4CCOC[C@@H]4C)nc3n2)cc1CO	0.417	431	485	387
Nc1nccc(-c2ccc3noc(-c4ccc(Cl)cc4)c3c2)n1	0.263	344	345	354
O=C(O)c1ccc2c(c1)nc(Nc1cccc(Cl)c1)c1ccncc12	2.63	517	570	509
CCC1=C[C@@H]2CN(C1)Cc1c([nH]c3ccccc13)[C@@](C(=O)OC)(c1cc3c(cc1OC)N(C)[C@H]1[C@@](O)(C(=O)OC)[C@H](OC(C)=O)[C@]4(CC)C=CCN5CC[C@]31[C@@H]54)C2	4.56	507	573	473
O=C1\C=C(OC2=C1SC=C2C3=CC=C4OCCOC4=C3)\N5CCOCC5	0.0742	293	276	350
CC/C(=C(/CC)c1ccc(O)cc1)c1ccc(O)cc1	18.6	516	585	517
CCCCc1oc2ccc(N[S+](C)(=O)[O-])cc2c1C(=O)c1ccc(OCCCN(CCCC)CCCC)cc1	7.42	477	563	486
Cc1[nH]c2ccccc2c1CCNCc1ccc(/C=C/C(=O)NO)cc1	4.17	378	403	376
COc1cc(C(N)=O)ccc1NC(=O)[C@@H]1N[C@@H](CC(C)(C)C)[C@@]2(C(=O)Nc3cc(Cl)ccc32)[C@H]1c1cccc(Cl)c1F	20.9	495	604	536
CCOC(=O)[C@H](CCc1ccccc1)N[C@@H](C)C(=O)N1CCC[C@H]1C(=O)O	10.5	300	458	417

SMILES	AC50 viability (NCI-H295R [1]) [µM]	area under concentration-response curve (CU-ACC1)	area under concentration-response curve (CU-ACC2)	area under concentration-response curve (NCI-H295R [2])
COc1ccc(-c2oc3ncnc(N)c3c2-c2ccc(NC(=O)Nc3cc(C(F)(F)F)ccc3F)cc2)cc1	13.2	469	518	471
C/C(=C\c1csc(C)n1)[C@@H]1C[C@@H]2O[C@]2(C)CCC[C@H](C)[C@H](O)[C@@H](C)C(=O)C(C)(C)[C@@H](O)CC(=O)N1	2.09	478	485	460
C[C@@H]1C[C@H]2[C@@H]3\C=C(C)/C4=C/C5=C(C[C@]4(C)[C@H]3[C@@H](O)C[C@]2(C)[C@@]1(O)C(=O)COC(C)=O)C=N[N]5C6=CC=CC=C6	20.9	513	608	529
O=C(NC1CC1)c1cccc(-c2ccc3c(NC(=O)C4CC4)n[nH]c3c2)c1	20.9	495	542	496
COc1ccc(N(C)c2nc(C)nc3ccccc23)cc1	0.00934	491	410	401
Cc1cc(Nc2nc(N[C@@H](C)c3ncc(F)cn3)ncc2Cl)n[nH]1	14.8	472	544	488
CCn1c(-c2nonc2N)nc2c(C#CC(C)(C)O)ncc(OC[C@H]3CCCNC3)c21	4.17	369	524	442
C/C(=C\c1csc(C)n1)[C@@H]1C[C@@H]2O[C@]2(C)CCC[C@H](C)[C@H](O)[C@@H](C)C(=O)C(C)(C)[C@@H](O)CC(=O)O1	0.0118	467	548	346
COc1ccc(-n2c(SCCCN3C(=O)c4cccc5cccc(c45)C3=O)nnc2-c2ccncc2)cc1	3.32	422	406	406
COc1ncc(-c2ccc3nccc(-c4ccnnc4)c3c2)cc1N[S+](=O)([O-])c1ccc(F)cc1F	0.059	362	441	362
Cc1cc2c(F)c(Oc3ncnn4cc(OCC(C)OC(=O)C(C)N)c(C)c34)ccc2[nH]1 (centres undefined)	18.6	473	468	481
Cc1cc(-c2nc3cc(F)ccc3s2)ccc1NC(=O)[C@@H](N)CCCCN	23.5	555	599	538
CN1\C(=C(O)/C2=C(C=C(Cl)S2)[S+]1([O-])=O)C(=O)NC3=NC=CC=C3	0.118	434	421	380
CC(C)n1ncnc1-c1cn2c(n1)-c1ccc(O[C@@H](C)C(N)=O)cc1OCC2	1.05	364	582	491
c1cn2cc(-c3ccc4cn[nH]c4c3)nc(Nc3ccc(N4CCOCC4)cc3)c2n1	7.42	509	568	497
Cc1cccc(/C=N/Nc2cc(N3CCOCC3)nc(OCCc3ccccn3)n2)c1	18.6	531	573	518
Oc1ccc([C@@H]2Oc3ccc(O)cc3[C@@H]3CCC[C@@H]32)cc1	13.2	485	535	500
CCC[C@H](N[C@H]1CCc2cc(F)cc(F)c2C1)C(=O)Nc1cn(C(C)(C)CNCC(C)(C)C)cn1	23.5	522	584	455
CCN1CCN(Cc2ccc(NC(=O)c3ccc(C)c(NC(=O)c4cncc(-c5cccs5)c4)c3)cc2C(F)(F)F)CC1	7.42	501	521	432
CC(C)NC(=O)[C@H]1CC[C@@H](n2c(NC(=O)c3ccc(F)cc3)nc3ccc(CN4CCC(C(C)(C)O)CC4)cc32)CC1	9.11	465	626	612
C[C@]12CC[C@@H]3c4ccc(O)cc4CC[C@H]3[C@@H]1CC[C@@H]2O	11.8	437	478	471

SMILES	AC50 viability (NCI-H295R [1]) [µM]	area under concentration-response curve (CU-ACC1)	area under concentration-response curve (CU-ACC2)	area under concentration-response curve (NCI-H295R [2])
CC(C)NC[C@@H](C(=O)N1CCN(c2ncnc3c2[C@H](C)C[C@H]3O)CC1)c1ccc(Cl)cc1	3.72	487	555	417
COC(=O)c1ccc([C@H]2c3[nH]c4ccccc4c3C[C@H](C(=O)OC)N2C(=O)CCl)cc1	0.263	385	360	356
COc1ccc2c(c1OC)C(=O)O[C@H]2[C@H]1c2c(cc3c(c2OC)OCO3)CCN1C	20.9	493	608	519
COc1ccc([S+](=O)([O-])Nc2cc(-c3csc(C#N)c3)ccc2C)cc1	0.0934	489	529	393
COC(=O)Nc1nc2cc(C(=O)c3ccccc3)ccc2[nH]1	0.417	440	475	412
c1ccc(CNc2nc(N3CCOc4ccccc43)nc3c2CCCC3)cc1	20.9	449	528	481
CC[C@]1(O)C[C@H]2CN(CCC3=C([NH]C4=C3C=CC=C4)[C@@](C2)(C(=O)OC)C5=C(OC)C=C6N(C)[C@H]7[C@](O)([C@H](OC(C)=O)[C@]8(CC)\C=C/CN9CC[C@]7([C@H]89)C6=C5)C(=O)OC)C1	3.32	504	560	444
C[C@@H]1COCCN1c1cc(C2([S@+](C)(=N)[O-])CC2)nc(-c2ccnc3[nH]ccc23)n1	16.6	524	491	525
CN(C)C/C=C/C(=O)Nc1cccc(C(=O)Nc2cccc(Nc3ncc(Cl)c(-c4c[nH]c5ccccc45)n3)c2)c1	1.66	434	437	444
Oc1ccc(Nc2nc(-c3ccc(Cl)cc3)cs2)cc1	16.6	403	496	474
C/C=C(/C)C(=O)O[C@H]1C(C)=C2[C@H]([C@@H]1OC(=O)CCCCCCC)[C@@](C)(OC(C)=O)C[C@H](OC(=O)CCC)[C@@]1(O)[C@H]2OC(=O)[C@@]1(C)O	10.5	465	344	498
COc1ccc(-n2c(C)c([N+](=O)[O-])c3ccc(O)cc32)cc1	14.8	519	615	549
CCOc1ccc(Nc2nc(-c3c(C)nc4ccccn34)cs2)cc1	2.95	493	497	487
O=C1S/C(=C\c2ccc(OCc3cccc(B(O)O)c3)cc2)C(=O)N1Cc1ccc(F)cc1	13.2	442	488	463
CC(C)c1onc(-c2c(Cl)cccc2Cl)c1COc1ccc(/C=C/c2cccc(C(=O)O)c2)c(Cl)c1	13.2	442	508	480
C=CCc1cccc(/C=N/NC(=O)CN2CCN(Cc3ccccc3)CC2)c1O	26.3	523	650	587
C[C@H]1CCC/C=C/C2C[C@H](O)C[C@H]2[C@H](O)/C=C/C(=O)O1 (some centres undefined)	0.263	390	389	346
CC(=O)c1cnc2ccc(-c3cc(Cl)c(O)c(Cl)c3)nc2c1N[C@H]1CC[C@H](CN(C)C)CC1	0.959	491	433	373
NC(=O)[C@@H](CCC(F)(F)F)N(Cc1ccc(-c2ncon2)cc1F)[S+](=O)([O-])c1ccc(Cl)cc1	20.9	441	476	469
